Test results: patent US9486507B2, “Pro-coagulant compounds and methods of use thereof” (priority 2011, dated 2016)

Key:
thrombin = thrombin (Homo sapiens, UniProt P00734); conditions: thrombin 1.4 nM, conjugate A 10 μM, PBS, 37° C.
Method: Conjugate A (21 μL, 0.24 mM) in water was added to 476.5 μL PBS. […] The mixture was incubated at 37° C. Aliquots (60 μL) at various time points were quenched with 1 μL of hirudin (10 μM) and injected into the HPLC (C-18 column, CH3CN/H2O, 0 to 70% over 12 minutes, 60° C. 0.5 mL/min, ? =280 nm).

[1] = system: FVIII deficient human plasma; assay: Thrombin generation assay (TGA) in FVIII-deficient plasma; assay type: biochemical; set-up: key to Thrombin Above Baseline (nM): 1-10 nM (1) or 1-29 nM (2) (+); 11-20 nM (1) or 30-59 nM (2) (++); 21-30 nM (1) or 60-90 nM (2) (+++); >30 nM (1) or >90 nM (2) (++++); At or about baseline (−); conditions: HRF FVIII-deficient plasma (1)
FIXa [2] = molecular target: T1, FIXa (Homo sapiens, UniProt P00740); assay: Km/Kcat of FIXa for the substrate FX (FXa generation assay); assay type: biochemical; set-up: purchased Haematologic Technologies; conditions: compound 1 3 μM, compounds 3, 4, 5 1 μM, compound C 10 μM; for Km / kcat: hFIXa 10 nM, FX 10-1000 nM, PL, CaCl2; for Δ kcat: relative to buffer (1.0)
Method: To determine the Km and Kcat of FIXa or FVIIa for the substrate FX, the FXa generation assay described above was used with the following modifications. […] Reactions were set up with varying concentrations of FX ranging between 400 and 0.8 nM and the rates of FXa generation were determined for each peptide at the different FX concentrations tested as described above. […] The catalytic constant (Kcat) was calculated by normalizing the Vmax to the enzyme concentration.
FIXa was used at 10 nM, and FX was used at 10-1000 nM. The assay was performed in the presence of phospholipids (PL) and calcium chloride.

[3] = system: 10% FVIII-deficient human plasma; assay: Modified activated partial thromboplastin time (aPTT*) assay; assay type: biochemical
Method: For the activated Partial Thromboplastin Time (aPTT) assay peptides to be tested were first diluted in 10% FVIII-deficient human plasma. For the aPTT* the peptides were diluted in 10% FVIII-deficient human plasma that contained traces of hFIXa (anywhere between 0 and 8.8 nM hFIXa depending on the assay) in Tris/NaCl/BSA buffer. The peptides were incubated for 10 minutes at room temperature and then assayed for clotting on a Sysmex instrument that recorded the clotting time observed for each sample. The times were compared to those of a standard curve derived from standards with known FVIII activity (U/mL) in order to determine the clotting outcome.

FIXa [4] = molecular target: T1, FIXa; assay: FXa generation assay with human FIXa; assay type: biochemical; set-up: purchased Haematologic Technologies; conditions: for Vmax: class symbols
mouse FIXa (mFIXa) = mouse FIXa (mFIXa) (Mus musculus, UniProt P16294); assay: FXa generation assay with mouse FIXa; assay type: biochemical; conditions: mFIXa compared to hFIXa
Description: The data confirms that the peptide was selected for binding to hFIXa.

[5] = system: FVIII deficient human plasma; assay: Rotational thromboelastometry (ROTEM) in FVIII-deficient human plasma; assay type: biochemical; conditions: for Clotting time, sec (avg.) / α-angle, degrees (avg.): human HemA plasma, lyophilized platelets, 10 fM lipTF
FIXa [6] = molecular target: T1, FIXa; assay: FXa generation assay with compound 3, phospholipid and Gla-domain dependency; assay type: biochemical; conditions: compound 3 1 μM
Description: Formation of FXa was monitored using a chromogenic substrate as described in the FXa generation assay directly above (see b.1.).

FIXa [7] = molecular target: T1, FIXa; assay: Incubation with FIXa in FXa generation assay buffer, LC-MS; assay type: biochemical; conditions: compound 3 100 μM; FIXa 0, 10 nM, 1 μM; with or without BSA; 3 hours
Method: The mixtures were then analyzed by LC-MS.

[8] = molecular target: T2, recombinant human factor IXa (hFIXa) (Homo sapiens, UniProt P00740); assay: Hydrogen/deuterium exchange mass spectrometry (H/DX-MS) of hFIXa; assay type: binding; conditions: hFIXa 1 μM with vs without compound 4 12 μM
T2 construct: purchased Hematologic Technologies
Method: Hydrogen/deuterium exchange mass spectrometry (H/DX-MS) was utilized to study the higher-order structural analysis of recombinant human factor IXa (hFIXa) in combination with and without compound 4. The general method can be found in the following references: Engen and Smith (2001) Anal. Chem. 73, 256A-265A.; Wales and Engen (2006) Mass Spectrum. Rev. 25, 158-170.
FIXa samples were equilibrated at ambient temperature (20±1° C.) for 1 hour before labeling with deuterated buffer (reaction buffers described above). The samples were then diluted 1:15 with deuterated buffer and incubated, allowing hydrogen exchange to occur for various amounts of time (10 seconds, 1, 10, 60, and 240 minutes), before the reaction was quenched with a 1:1 dilution of 200 mM citrate, 8 M guanidinium HCl, and 0.5 M TCEP, pH 2.33. Quenched samples were then incubated for 20 seconds before being further diluted 1:1 with 0.1% formic acid and immediately injected into the LC-MS system for analysis.
Approximately 7 μg of exchanged/quenched FIXa was injected onto an immobilized pepsin column where the digestion and peptide trapping were performed for 3 minutes with a flow rate of 0.1 mL/min in 0.1% formic acid at 10° C. […] Mass spectra were acquired and peptic peptides were identified using a combination of exact mass and MS, aided by Waters Identity software (Silva J C et al., 2006. Absolute quantification of proteins by LCMSE: a virtue of parallel MS acquisition. Mol Cell Proteomics, 5(1): p144). […] The amount of deuterium in each peptide was determined by subtracting the mass of the undeuterated peptide from the mass of the deuterated peptide, incubated at various HDX time points (which were uncorrected for any back exchange). […]
The difference in deuterium exchange between FIXa and FIXa with compound 4 was determined by subtracting the mass of each FIXa peptide from the mass of the corresponding FIXa with compound 4. […] The sum of these differences, across all time points, was calculated. […]

[9] = system: purified recombinant human coagulation factors; assay: Thrombin generation assay using purified hemostatic components; assay type: biochemical; conditions: compounds 1 μM; FVIII 0.1 or 1 IU/mL (FIG. 5)
[10] = molecular target: T3, FXa or the prothrombinase complex (Homo sapiens, UniProt P00742); assay: FXa / prothrombinase activity in purified thrombin generation assay; assay type: biochemical; conditions: 1 μM; FXa 0.05 ug/mL, with or without FV
T3 construct: Under these conditions FIXa cleaves the zymogen FX into the active form FXa
Method: In another experiment it was determined whether or not the compounds of the present disclosure directly enhance the activity of FXa or the prothrombinase complex.

[11] = aPTT*, D-amino acid scan of compound 1, listed as WT
[12] = FXa generation assay, 10 nM hFIXa, 100 nM hFX

## Cys(Acm)-Gly-Gly-Gly-Gly-Dphe-Pip-Arg-PABC-rRAPGKLTCLASYCWLFWTGIA-NH2 (Disulfide) [conjugate A]
thrombin
  incubation time to full cleavage by thrombin: about 60 min

## KLTCLASYCWLF [Compound 1]
[1]; 2.5 μM
  Thrombin Above Baseline (nM): −
[1]; 5 μM
  Thrombin Above Baseline (nM): −
[1]; 10 μM
  Thrombin Above Baseline (nM): −
[1]; 20 μM
  Thrombin Above Baseline (nM): −
FIXa [2]
  Km: 0.024 ± 0.0048 µM
  kcat: 0.00024 s⁻¹
  Δ kcat: 160
[3]; aPTT* with FIXa, 5 μM
  Clotting time: 47.9 s
  Clotting time, sec: 47.3; sec
[3]; aPTT* with FIXa, 10 μM
  Clotting time: 43.3 s
  Clotting time, sec: 44.2; sec
[3]; aPTT* with FIXa, 20 μM
  Clotting time: 43.8 s
  Clotting time, sec: 43.5; sec
[3]; [11]
  Clotting time: 47.8 s
  Clotting time, sec: 47.9; sec
[3]; aPTT*, FIXa 1 nM
  Clotting time: 107.4 s
  Clotting time, sec: 105.8; sec
[3]; aPTT*, FIXa 2 nM
  Clotting time: 82.8 s
  Clotting time, sec: 84.4; sec
[3]; aPTT*, FIXa 4 nM
  Clotting time: 50.6 s
  Clotting time, sec: 50.9; sec
[3]; aPTT*, FIXa 8 nM
  Clotting time: 40.6 s
  Clotting time, sec: 40.1; sec
FIXa [4]; [12]
  Vmax: (+++) ((+++)>2)
FIXa [4]; PL: No
  Vmax (mOD/min min): 2.60 mOD/min min
FIXa [4]; PL: Yes
  Vmax (mOD/min min): 3.98 mOD/min min
Mouse FIXa (mFIXa)
  Vmax: greatly reduced

## RRAPGKLQCLASYCWLFWTGIA [Compound 3]
FIXa [2]
  Km: 0.016 ± 0.0035 µM
  kcat: 0.000295 s⁻¹
  Δ kcat: 197
[3]; aPTT*, exogenous hFIXa 0.5 nM
  Clotting time: 115.2 s
  Clotting time, sec: 115.6; sec
[3]; aPTT*, exogenous hFIXa 8.8 nM
  Clotting time: 41.9 s
  Clotting time, sec: 45.4; sec
[5]; 10 uM, polyclonal sheep IgG against human FVIII, 1:100
  clotting time and α-angle with neutralizing anti-FVIII antibody: independent of residual FVIII
[5]; compound 3 at 5 μM, faster than
  clotting time compared with FVIII (100% FVIII = 1 IU/mL): > 100 % FVIII
[5]; compound 3 at 10 μM
  α-angle corresponding to FVIII: about 20 % FVIII
[5]; 0.625 μM
  Clotting time, sec (avg.): 792 s
  α-angle, degrees (avg.): 29 degrees
[5]; 2.5 μM
  Clotting time, sec (avg.): 452 s
  α-angle, degrees (avg.): 33 degrees
[5]; 5 μM
  Clotting time, sec (avg.): 329 s
  α-angle, degrees (avg.): 38 degrees
[5]; 10 μM
  Clotting time, sec (avg.): 205 s
  α-angle, degrees (avg.): 51 degrees
FIXa [4]; FXa generation assay using human FIXa
  Vmax: (++++) ((++++)>3)
FIXa [4]; PL: No
  Vmax (mOD/min min): 2.77 mOD/min min
FIXa [4]; PL: Yes
  Vmax (mOD/min min): 3.90 mOD/min min
FIXa [6]; +PL
  Percentage of control (FXa generation): 100%
FIXa [6]; +PL +anti-FIX IgG (Gla)
  Percentage of control (FXa generation): 58.0%
FIXa [6]; −PL
  Percentage of control (FXa generation): 90%
FIXa [7]
  substrate for FIXa (LC-MS): not a substrate for FIXa

## RRAPGKLTCLASYCWLFWTGIA [Compound 4]
FIXa [2]
  Km: 0.011 ± 0.0027 µM
  kcat: 0.000285 s⁻¹
  Δ kcat: 190
[8]
  FIXa peptide with most important significant difference in H/D exchange: heavy chain peptide 177-185
  difference index DI(1): 2
  difference index DI(2): 0
[9]
  thrombin generation: induce thrombin generation
FIXa [4]; [12]
  Vmax: (+++) ((+++)>2)
[10]
  catalytic activity of FXa or the prothrombinase complex: did not substantially increase the catalytic activity of FXa or the prothrombinase complex
